For 28 molecules, Ki and IC50 results are on record in patent publication US8916593B2, “Alkoxy-substituted 2-aminopyridines as ALK inhibitors” (Pfizer Inc., priority 2010, dated 2014).

Some results are limits rather than exact numbers.

Assay [1] has as its target T1, human recombinant wild-type ALK kinase domain (amino acids 1093-1411) (Homo sapiens, UniProt Q9UM73).
T1 construct: ALK kinase domain (amino acids 1093-1411); made in house
Kind of assay: ALK enzyme assay 2 (microfluidic mobility shift assay).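 Also: kinase reaction run 1 h at room temperature, conversion quantified by electrophoretic separation of fluorescent peptide substrate from phosphorylated product, about 15-20% turnover without inhibitor.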 It is filed as biochemical.
Procedure: The reactions were incubated for 1 h at room temperature, stopped by the addition of 0.1 M EDTA, pH 8, and the extent of reactions (˜15-20% conversion with no inhibitor) was determined after electrophoretic separation of the fluorescently labeled peptide substrate and phosphorylated product on an LabChip EZ Reader II (Caliper Life Sciences, Hopkinton, Mass.).

The target of assay [2] is EML4-ALK wt v1 in NIH-3T3 cells (Homo sapiens, UniProt Q9UM73).
EML4-ALK wt v1 in NIH-3T3 cells, sequence (Q9UM73 with tags, fused parts or gaps): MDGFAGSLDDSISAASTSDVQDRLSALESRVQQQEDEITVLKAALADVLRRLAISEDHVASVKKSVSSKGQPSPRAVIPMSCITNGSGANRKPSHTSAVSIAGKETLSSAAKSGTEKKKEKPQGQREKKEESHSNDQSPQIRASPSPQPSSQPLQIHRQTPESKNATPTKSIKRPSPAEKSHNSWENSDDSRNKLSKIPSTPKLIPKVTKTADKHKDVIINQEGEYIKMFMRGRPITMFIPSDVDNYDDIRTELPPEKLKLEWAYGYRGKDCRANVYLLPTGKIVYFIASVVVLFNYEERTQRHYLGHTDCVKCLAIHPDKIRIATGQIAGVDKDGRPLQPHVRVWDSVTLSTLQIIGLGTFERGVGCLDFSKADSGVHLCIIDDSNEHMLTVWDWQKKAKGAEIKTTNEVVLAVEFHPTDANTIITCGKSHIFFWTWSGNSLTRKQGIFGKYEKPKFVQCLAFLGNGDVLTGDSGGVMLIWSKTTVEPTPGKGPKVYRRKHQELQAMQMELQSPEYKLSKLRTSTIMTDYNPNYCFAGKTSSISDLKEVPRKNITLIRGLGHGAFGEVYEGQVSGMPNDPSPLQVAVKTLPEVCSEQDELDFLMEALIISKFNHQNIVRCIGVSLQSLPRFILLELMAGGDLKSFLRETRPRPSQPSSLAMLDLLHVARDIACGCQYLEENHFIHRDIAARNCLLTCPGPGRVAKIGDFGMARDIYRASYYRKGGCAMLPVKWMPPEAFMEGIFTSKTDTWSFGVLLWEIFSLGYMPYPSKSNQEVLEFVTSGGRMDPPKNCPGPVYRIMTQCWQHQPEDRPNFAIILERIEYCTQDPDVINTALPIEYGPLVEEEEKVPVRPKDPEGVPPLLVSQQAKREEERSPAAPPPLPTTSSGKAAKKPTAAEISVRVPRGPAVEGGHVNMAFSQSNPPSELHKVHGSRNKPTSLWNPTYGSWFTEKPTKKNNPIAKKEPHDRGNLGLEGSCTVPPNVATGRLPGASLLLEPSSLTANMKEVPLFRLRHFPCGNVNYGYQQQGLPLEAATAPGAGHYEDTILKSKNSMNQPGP

T1 sequence (Q9UM73 1093-1411): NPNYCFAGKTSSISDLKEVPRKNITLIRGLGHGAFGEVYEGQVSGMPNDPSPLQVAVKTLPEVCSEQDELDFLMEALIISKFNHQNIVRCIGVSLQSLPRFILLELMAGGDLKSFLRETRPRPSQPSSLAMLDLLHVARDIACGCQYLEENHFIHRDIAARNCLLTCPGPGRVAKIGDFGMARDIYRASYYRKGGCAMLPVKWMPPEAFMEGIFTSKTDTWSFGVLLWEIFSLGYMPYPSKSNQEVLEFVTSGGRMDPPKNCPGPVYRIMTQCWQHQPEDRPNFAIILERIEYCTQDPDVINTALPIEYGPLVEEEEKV

One may read the Ki as the dissociation constant of the complex between target and ligand, obtained from inhibition or displacement. Turning to `Cc1n[nH]c(C)c1-c1cnc(N)c(O[C@H](C)c2cc(F)ccc2F)c1` [Example 48, 3-[(1R)-(2,5-difluorophenyl)-ethoxy]-5-(3,5-dimethyl-1H-pyrazol-4-yl)pyridin-2-amine], the Ki in assay [1] is 1.56 nM.

In general, IC50 refers to the concentration that inhibits the measured activity by half. Regarding `CC(Oc1cc(-c2ccnn2C)cnc1N)c1cc(F)ccc1-c1nccn1C` (stereo not drawn) [Example 63, 3-{1-[5-Fluoro-2-(1-methyl-1H-imidazol-2-yl)-phenyl]ethoxy}-5-(2-methyl-2H-pyrazol-3-yl)-pyridin-2-ylamine], the inhibition constant (Ki) in assay [1] turned out to be 67 nM. The molecule also came in with a half-inhibitory concentration (IC50) in assay [2] of 2350 nM.

As for `C[C@@H](Oc1nc(-c2ccc(C(N)=O)nc2)cnc1N)c1cc(F)ccc1-n1nccn1` [Example 64, 5-(5-amino-6-{(1R)-1-[5-fluoro-2-(2H-1,2,3-triazol-2-yl)phenyl]ethoxy}pyrazin-2-yl)pyridine-2-carboxamide], in assay [1], the inhibition constant Ki was determined as 2.4 nM. In assay [2], this molecule showed a half-inhibitory concentration (IC50) of 123 nM.

For `Cc1n[nH]cc1-c1cnc(N)c(OC(C)c2cc(F)ccc2N2CCCC2=O)n1` (stereo not drawn) [Example 65, 1-[2-(1-{[3-amino-6-(3-methyl-1H-pyrazol-4-yl)pyrazin-2-yl]oxy}ethyl)-4-fluorophenyl]pyrroli-din-2-one], the Ki in assay [1] came to 5.1 nM. Moreover, the midpoint of inhibition in assay [2], the IC50, lay at 193 nM.

As to `Cc1n[nH]cc1-c1cnc(N)c(O[C@H](C)c2cc(F)ccc2-n2nccn2)n1` [Example 67, 3-{(1R)-1-[5-fluoro-2-(2H-1,2,3-triazol-2-yl)phenyl]ethoxy}-5-(3-methyl-1H-pyrazol-4-yl)pyrazin-2-amine], in assay [1], the inhibition constant Ki came to 0.56 nM. It took 40.9 nM to reach half-maximal inhibition in assay [2] (IC50).

With `COc1ccc(F)cc1[C@@H](C)Oc1nc(-c2ccc([C@H](C)N)cc2)cnc1N` [Example 68, 5-{4-[(1S)-1-aminoethyl]phenyl}-3-[(1R)-1-(5-fluoro-2-methoxyphenyl)eth-oxy]pyrazin-2-amine], in assay [1], the inhibition constant Ki was less than 0.2 nM. The molecule also gave an IC50 in assay [2] of 4.5 nM.

`COc1ncccc1-c1cnc(N)c(OC(C)c2cc(F)ccc2N2CCCC2=O)n1` (stereo not drawn) [Example 69, 1-[2-(1-{[3-amino-6-(2-methoxypyridin-3-yl)pyrazin-2-yl]oxy}ethyl)-4-fluorophenyl]pyrroli-din-2-one]: the Ki in assay [1] amounted to 1.1 nM. This molecule also gave an IC50 in assay [2] of 52.6 nM.

Take `C[C@@H](Oc1nc(-c2ccnc(N3CCN(C)CC3)c2)cnc1N)c1cc(F)ccc1-n1nccn1` [Example 70, 3-{(1R)-1-[5-fluoro-2-(2H-1,2,3-triazol-2-yl)phenyl]ethoxy}-5-[2-(4-methylpiperazin-1-yl)pyridin-4-yl]pyrazin-2-amine]: the Ki in assay [1] was less than 0.2 nM. In assay [2], this molecule had a concentration for half-maximal inhibition (IC50) of 5.48 nM.

Take `C[C@@H](Oc1nc(-c2cnn(C3CCNCC3)c2)cnc1N)c1cc(F)ccc1-n1nccn1` [Example 71, 3-{(1R)-1-[5-fluoro-2-(2H-1,2,3-triazol-2-yl)phenyl]ethoxy}-5-[1-(piperidin-4-yl)-1H-pyrazol-4-yl]pyrazin-2-amine]: the inhibition constant (Ki) in assay [1] was less than 0.2 nM. In assay [2], this molecule registered an IC50 of 30.3 nM.

Regarding `C[C@@H](Oc1nc(-c2cccc(S(C)(=O)=O)c2)cnc1N)c1cc(F)ccc1-n1nccn1` [Example 72, 3-{(1R)-1-[5-fluoro-2-(2H-1,2,3-triazol-2-yl)phenyl]ethoxy}-5-[3-(methylsulfonyl)phen-yl]pyrazin-2-amine], the Ki in assay [1] stood at 0.24 nM. The molecule also gave a concentration for half-maximal inhibition (IC50) in assay [2] of 10.4 nM.

For the molecule `C[C@@H](Oc1cc(-c2ccnc(N3CCN(C)CC3)c2)cnc1N)c1cc(F)ccc1-n1nccn1` [Example 73, 5-{(1R)-1-[5-fluoro-2-(2H-1,2,3-triazol-2-yl)phenyl]ethoxy}-2′-(4-methylpiperazin-1-yl)-3,4′-bipyridin-6-amine], the Ki in assay [1] is less than 0.2 nM. Also, in assay [2], the IC50 came to 6.73 nM.

For the molecule `C[C@@H](Oc1cc(-c2cnn(C3CCNCC3F)c2)cnc1N)c1cc(F)ccc1-n1nccn1` (stereo partly drawn) [Example 74, 5-[1-(3-fluoropiperidin-4-yl)-1H-pyrazol-4-yl]-3-{(1R)-1-[5-fluoro-2-(2H-1,2,3-triazol-2-yl)phenyl]ethoxy} pyridin-2-amine], the Ki in assay [1] is less than 0.2 nM. Moreover, the IC50 in assay [2] turned out to be 6.77 nM.

With `C[C@@H](Oc1cc(-c2cnc3c(c2)C(C)(C)C(=O)N3)cnc1N)c1cc(F)ccc1-n1nccn1` [Example 75, 5-(6-amino-5-{(1R)-1-[5-fluoro-2-(2H-1,2,3-triazol-2-yl)phenyl]ethoxy}pyridin-3-yl)-3,3-dimethyl-1,3-dihydro-2H-pyrrolo[2,3-b]pyridin-2-one], the inhibition constant (Ki) in assay [1] stood at 0.341 nM. Further, it took 24.6 nM to reach half-maximal inhibition in assay [2] (IC50).

On to `CC(C)n1cc(-c2cnc(N)c(O[C@H](C)c3cc(F)ccc3-n3nccn3)c2)cn1` [Example 76, 3-{(1R)-1-[5-fluoro-2-(2H-1,2,3-triazol-2-yl)phenyl]ethoxy}-5-[1-(propan-2-yl)-1H-pyrazol-4-yl]pyridin-2-amine], for which the Ki in assay [1] is 0.216 nM. Also, in assay [2], the IC50 turned out to be 25.5 nM.

On to `CC(O)Cn1cc(-c2cnc(N)c(O[C@H](C)c3cc(F)ccc3-n3nccn3)c2)cn1` (stereo partly drawn) [Example 77, 1-[4-(6-amino-5-{(1R)-1-[5-fluoro-2-(2H-1,2,3-triazol-2-yl)phenyl]ethoxy}pyridin-3-yl)-1H-pyrazol-1-yl]propan-2-ol], for which the inhibition constant Ki in assay [1] was found to be 0.2 nM. Moreover, in assay [2], the half-maximal inhibitory concentration (IC50) came to 15.3 nM.

Turning to `CC1CNc2ncc(-c3cnc(N)c(O[C@H](C)c4cc(F)ccc4-n4nccn4)c3)cc2O1` (stereo partly drawn) [Example 79, 3-{(1R)-1-[5-fluoro-2-(2H-1,2,3-triazol-2-yl)phenyl]ethoxy}-5-(2-methyl-3,4-dihydro-2H-pyrido[3,2-b][1,4]oxazin-7-yl)pyridin-2-amine], in assay [1], the Ki is less than 0.2 nM. The same molecule registered an IC50 in assay [2] of 15.5 nM.

`C[C@@H](Oc1cc(-c2cnn(C3CCNCC3)c2)cnc1N)c1cc(F)ccc1-n1nccn1` [Example 80, 3-{(1R)-1-[5-fluoro-2-(2H-1,2,3-triazol-2-yl)phenyl]ethoxy}-5-[1-(piperidin-4-yl)-1H-pyrazol-4-yl]pyridin-2-amine]: in assay [1], the Ki is less than 0.2 nM. In addition, inhibition in assay [2] was half-maximal at 6.58 nM (IC50).

As for `C[C@@H](Oc1cc(-c2cnn(C3CCNC3)c2)cnc1N)c1cc(F)ccc1-n1nccn1` (stereo partly drawn) [Example 81, 3-{(1R)-1-[5-fluoro-2-(2H-1,2,3-triazol-2-yl)phenyl]ethoxy}-5-[1-(pyrrolidin-3-yl)-1H-pyrazol-4-yl]pyridin-2-amine], in assay [1], the inhibition constant Ki was less than 0.2 nM. This molecule also returned an IC50 in assay [2] of 9.9 nM.

As to `CCn1cc(-c2cnc(N)c(O[C@H](C)c3cc(F)ccc3-n3nccn3)c2)ccc1=O` [Example 82, 6′-amino-1-ethyl-5′-{(1R)-1-[5-fluoro-2-(2H-1,2,3-triazol-2-yl)phenyl]ethoxy}-3,3′-bipyridin-6(1H)-one], the inhibition constant (Ki) in assay [1] is less than 0.2 nM. The molecule further gave an IC50 in assay [2] of 75.3 nM.

As to `Cc1nn(CC#N)c(C)c1-c1cnc(N)c(O[C@H](C)c2cc(F)ccc2-n2nccn2)c1` [Example 84, [4-(6-amino-5-{(1R)-1-[5-fluoro-2-(2H-1,2,3-triazol-2-yl)phenyl]ethoxy}pyridin-3-yl)-3,5-dimethyl-1H-pyrazol-1-yl]acetonitrile], the Ki in assay [1] is less than 0.2 nM. Besides, in assay [2], the IC50 stood at 13.2 nM.

Consider `C[C@@H](Oc1cc(-c2cccc3c2CNC3=O)cnc1N)c1cc(F)ccc1-n1nccn1` [Example 85, 4-(6-Amino-5-((R)-1-(5-fluoro-2-(2H-1,2,3-triazol-2-yl)phenyl)ethoxy)pyridin-3-yl)isoindolin-1-one], for which, in assay [1], the inhibition constant Ki came out at 0.37 nM. The molecule also had an IC50 in assay [2] of 6.81 nM.

For the molecule `C[C@@H](Oc1cc(-c2cccc(CS(C)(=O)=O)c2)cnc1N)c1cc(F)ccc1-n1nccn1` [Example 87, 3-{(1R)-1-[5-fluoro-2-(2H-1,2,3-triazol-2-yl)phenyl]ethoxy}-5-{3-[(methylsulfonyl)methyl]phenyl}pyridin-2-amine], the Ki in assay [1] is less than 0.2 nM. Further, it took 4.14 nM to reach half-maximal inhibition in assay [2] (IC50).

Turning to `C[C@@H](N)c1ccc(-c2cnc(N)c(O[C@H](C)c3cc(F)ccc3-n3nccn3)c2)cc1` [Example 88, 5-{4-[(1R)-1-aminoethyl]phenyl}-3-{(1R)-1-[5-fluoro-2-(2H-1,2,3-triazol-2-yl)phenyl]ethoxy}-pyridin-2-amine], the Ki in assay [1] is less than 0.2 nM. Besides, the IC50 in assay [2] was determined as 2.61 nM.

Consider `C[C@@H](Oc1cc(-c2ccc3c(c2)CNC3=O)cnc1N)c1cc(F)ccc1-n1nccn1` [Example 89, 5-(6-amino-5-{(1R)-1-[5-fluoro-2-(2H-1,2,3-triazol-2-yl)phenyl]ethoxy}pyridin-3-yl)-2,3-dihydro-1H-isoindol-1-one], for which the Ki in assay [1] stood at 0.22 nM. Besides, in assay [2], inhibition was half-maximal at 43.6 nM (IC50).

As to `CNC(=O)c1nc(C)c(-c2cnc(N)c(O[C@H](C)c3cc(F)ccc3-n3nccn3)c2)s1` [Example 90, 5-(6-amino-5-{(1R)-1-[5-fluoro-2-(2H-1,2,3-triazol-2-yl)phenyl]ethoxy}pyridin-3-yl)-N,4-dimethyl-1,3-thiazole-2-carboxamide], in assay [1], the inhibition constant Ki was determined as 1.2 nM. In addition, the half-maximal inhibitory concentration (IC50) in assay [2] came out at 58.9 nM.

Consider `Cc1nn(CC(O)CO)c(C)c1-c1cnc(N)c(O[C@H](C)c2cc(F)ccc2-n2nccn2)c1` (stereo partly drawn) [Example 91, 3-[4-(6-amino-5-{(1R)-1-[5-fluoro-2-(2H-1,2,3-triazol-2-yl)phenyl]ethoxy}pyridin-3-yl)-3,5-dimethyl-1H-pyrazol-1-yl]propane-1,2-diol], for which, in assay [1], the inhibition constant Ki was less than 0.2 nM. Further, the IC50 in assay [2] was 0.793 nM.

Take `CNC(=O)c1ncc(-c2cnc(N)c(O[C@H](C)c3cc(F)ccc3-n3nccn3)c2)cn1` [Example 92, 5-(6-amino-5-{(1R)-1-[5-fluoro-2-(2H-1,2,3-triazol-2-yl)phenyl]ethoxy}pyridin-3-yl)-N-methylpyrimidine-2-carboxamide]: the Ki in assay [1] worked out at 7.2 nM. The molecule further came in with a concentration for half-maximal inhibition (IC50) in assay [2] of 729 nM.

Take `COCc1ccc(-c2cnc(N)c(OC(C)c3cc(F)ccc3OC)c2)cc1S(C)(=O)=O` (stereo not drawn) [Example 135, 3-[1-(5-fluoro-2-methoxyphenyl)ethoxy]-5-[4-(methoxymethyl)-3-(methylsulfonyl)phenyl]pyridin-2-amine]: the IC50 in assay [2] was determined as 4.15 nM.
